In US20160097044A1, “Antimicrobial Enzyme Fusions Reduce Resistance and Kill Intracellular Staphylococcus aureus” (The United States of America, as Represented by the …, priority 2014, published 2016):

How the values were obtained:
TNFα = assay: Murine model of mastitis, TNFα response; type: in vivo, C57BL6/SJL mice; conditions: single 1.25 nmoles intramammary infusion, after challenge
Procedure: FIG. 6a depicts the specific activity of peptidoglycan hydrolase fusion constructs in vitro in a turbidity reduction assay with S. aureus Newbould 305 resuspended in lysis buffer to an OD600nm of 1.0 and treated with 1 μM final concentrations of each peptidoglycan hydrolase. The maximum specific activity for three experiments are represented as an average with SEM error bars. FIG. 6b depicts the bacterial burden in mice with mastitis treated with recombinant peptidoglycan hydrolases. Colony Forming Units (CFUs) from infected murine mammary glands following a single treatment with 50 μl of 25 μM peptidoglycan hydrolase (1.25 nmol). Each data point represents the average of duplicate bacterial platings. The horizontal bars represent the average CFU/mg for each group. FIG. 6c illustrates the TNFα response in mice with mastitis that were treated with peptidoglycan hydrolases. Data represents a minimum of 7 measurements in duplicate. Log TNFα was used for statistical analysis. Single asterisks indicate a significant difference from buffer control (p<0.05); double asterisks indicate a significant difference from the parental enzyme (p<0.05). […]
Statistical analysis: The variables were analyzed as two-factor mixed models with Treatment as the factor and Mouse as random Blocks. […]

[1] = bovine, in vivo; cited from earlier work
S. aureus Newbould 305 = assay: Turbidity reduction assay; type: cell-based; conditions: 1 μM enzyme, cells at OD600nm 1.0, FIG. 6a
Procedure: FIG. 6a depicts the specific activity of peptidoglycan hydrolase fusion constructs in vitro in a turbidity reduction assay with S. aureus Newbould 305 resuspended in lysis buffer to an OD600nm of 1.0 and treated with 1 μM final concentrations of each peptidoglycan hydrolase. The maximum specific activity for three experiments are represented as an average with SEM error bars. FIG. 6b depicts the bacterial burden in mice with mastitis treated with recombinant peptidoglycan hydrolases. Colony Forming Units (CFUs) from infected murine mammary glands following a single treatment with 50 μl of 25 μM peptidoglycan hydrolase (1.25 nmol). Each data point represents the average of duplicate bacterial platings. The horizontal bars represent the average CFU/mg for each group. FIG. 6c illustrates the TNFα response in mice with mastitis that were treated with peptidoglycan hydrolases. Data represents a minimum of 7 measurements in duplicate. Log TNFα was used for statistical analysis. Single asterisks indicate a significant difference from buffer control (p<0.05); double asterisks indicate a significant difference from the parental enzyme (p<0.05).
FIG. 7 depicts a turbidity reduction assay of select peptidoglycan hydrolases against S. aureus Newbould 305. Bacterial cells were resuspended in lysis buffer to an OD600nm of 1.0 and lysed with 1 μM final concentrations of each peptidoglycan hydrolase. The maximum rate of ΔOD of three experiments are represented as an average with error bars representing SEM. Double asterisks indicate significant difference from parental. Mean comparisons were performed with one way ANOVA (P=3.3×10^−5) with t test post hoc analysis with Sidák adjusted alpha (p<0.01).

S. aureus = assay: Murine model of staphylococcal osteomyelitis (femur); type: in vivo, C57BL/6J mice; conditions: 5 mg/kg i.m. at site of infection, twice in 24 h, N=6
Procedure: Neonatal mouse whole calvaria were treated for 4 hours with chimeric peptidoglycan hydrolases or buffer alone, 24 hours post inoculation with GFP-expressing S. aureus. Calvaria were embedded in freeze media, sectioned, and subjected to fluorescence imaging. The image shown is a representative figure for triplicate sections of three separate calvaria. FIG. 8b depicts fluorescence intensity from these sections measured in ImageJ and defined as arbitrary fluorescence standardized to the untreated control. Error bars represent SEM of four replicate experiments. FIG. 8c depicts ex-vivo intracellular S. aureus eradication. Infected calvaria were homogenized and CFU were counted post treatment. Error bars represent SEM. FIG. 8d depicts a murine model of staphylococcal osteomyelitis. C57BL/6J mice were anesthetized and their femurs were surgically exposed. […] The femurs were removed, homogenized, and plated to quantify the bacterial load. […] Asterisks represent statistical significance as determined by one-way ANOVA followed by Tukey's posthoc test.
We utilized a previously described (Marriott, supra) murine model of staphylococcal osteomyelitis that reproduces the clinical and gross pathological phases of inflammatory bone diseases, such as human post-traumatic osteomyelitis. […] Asterisks represent statistical significance as determined by one-way ANOVA followed by Tukey's posthoc test.

L: 247 amino acid mature (secreted) lysostaphin, staphylolytic bacteriocin, C-terminal His6 tag; SEQ ID NO:1 [reference compound]
reduction of TNFα concentration in the mammary tissue (TNFα): > 6 fold | treatments after which specific antibodies were detectable [1]: 18-21 treatments

K-L: both LysK lytic domains fused to the N-terminus of lysostaphin; SEQ ID NO:5, protein SEQ ID NO:6
turbidity reduction (in vitro lytic) activity (S. aureus Newbould 305): slightly more effective at lysing S. aureus strain Newbould 305 than lysostaphin | bacterial load in femur compared to no treatment (S. aureus): significantly reduced bacterial load as compared to no treatment
